In ChEMBL document CHEMBL1136449, “A new class of glycogen phosphorylase inhibitors” (Bioorg Med Chem Lett, 2003):

How the values were obtained:
[1] = biological target: T1, Glycogen phosphorylase, liver form (Homo sapiens, UniProt P06737); experiment: Inhibitory activity against HLGP(human liver glycogen phosphorylase)
T1 sequence (P06737 whole entry): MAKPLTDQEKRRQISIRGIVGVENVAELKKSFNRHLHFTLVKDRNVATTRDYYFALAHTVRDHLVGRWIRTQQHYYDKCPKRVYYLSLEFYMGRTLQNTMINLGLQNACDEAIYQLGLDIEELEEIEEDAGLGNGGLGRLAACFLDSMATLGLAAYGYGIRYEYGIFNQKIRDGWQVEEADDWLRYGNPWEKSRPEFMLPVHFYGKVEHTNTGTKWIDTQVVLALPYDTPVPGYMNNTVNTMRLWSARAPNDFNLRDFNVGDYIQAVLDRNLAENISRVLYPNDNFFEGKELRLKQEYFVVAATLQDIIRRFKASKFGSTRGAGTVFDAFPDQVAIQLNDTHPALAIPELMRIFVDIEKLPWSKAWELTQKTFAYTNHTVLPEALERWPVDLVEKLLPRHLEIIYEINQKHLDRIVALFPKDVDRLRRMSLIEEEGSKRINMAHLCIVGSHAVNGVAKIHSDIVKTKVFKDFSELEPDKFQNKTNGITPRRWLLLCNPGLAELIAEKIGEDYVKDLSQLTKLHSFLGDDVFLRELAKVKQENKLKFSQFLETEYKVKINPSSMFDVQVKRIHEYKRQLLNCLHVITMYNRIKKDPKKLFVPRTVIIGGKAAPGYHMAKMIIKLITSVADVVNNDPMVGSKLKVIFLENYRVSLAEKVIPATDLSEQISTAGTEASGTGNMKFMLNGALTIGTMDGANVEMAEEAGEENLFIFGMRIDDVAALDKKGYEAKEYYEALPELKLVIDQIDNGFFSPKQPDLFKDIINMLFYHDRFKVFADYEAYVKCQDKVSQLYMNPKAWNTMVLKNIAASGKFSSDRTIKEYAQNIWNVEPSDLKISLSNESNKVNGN

[2] = biological target: T2, Glycogen phosphorylase, muscle form (Homo sapiens, UniProt P11217); experiment: Inhibitory activity against HMGP(human muscle glycogen phosphorylase)
T2 sequence (P11217 whole entry): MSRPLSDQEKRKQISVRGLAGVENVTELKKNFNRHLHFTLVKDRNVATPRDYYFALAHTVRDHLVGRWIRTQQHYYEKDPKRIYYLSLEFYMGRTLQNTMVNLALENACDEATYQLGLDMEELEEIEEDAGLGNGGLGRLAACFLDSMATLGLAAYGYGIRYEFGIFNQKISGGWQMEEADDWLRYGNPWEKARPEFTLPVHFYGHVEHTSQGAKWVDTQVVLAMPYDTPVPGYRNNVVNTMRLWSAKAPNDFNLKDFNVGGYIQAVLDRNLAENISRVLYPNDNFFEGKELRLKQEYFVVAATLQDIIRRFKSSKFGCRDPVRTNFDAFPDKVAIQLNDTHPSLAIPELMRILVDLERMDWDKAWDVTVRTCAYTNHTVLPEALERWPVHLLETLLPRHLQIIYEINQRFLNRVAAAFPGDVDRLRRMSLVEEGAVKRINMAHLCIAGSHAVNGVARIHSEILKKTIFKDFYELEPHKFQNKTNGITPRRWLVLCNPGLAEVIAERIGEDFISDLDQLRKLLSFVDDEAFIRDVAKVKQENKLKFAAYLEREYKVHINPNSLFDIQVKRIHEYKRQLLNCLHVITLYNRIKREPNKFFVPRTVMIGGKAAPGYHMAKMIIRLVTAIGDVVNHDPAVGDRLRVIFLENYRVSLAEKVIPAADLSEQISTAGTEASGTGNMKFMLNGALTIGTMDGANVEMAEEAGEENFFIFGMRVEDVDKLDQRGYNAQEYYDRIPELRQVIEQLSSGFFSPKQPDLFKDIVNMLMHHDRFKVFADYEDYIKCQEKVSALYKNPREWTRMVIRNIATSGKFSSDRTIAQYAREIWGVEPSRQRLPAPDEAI

[3] = biological target: T3, Glycogen phosphorylase, liver form (Mus musculus, UniProt Q9ET01); experiment: Inhibitory activity against mouse liver glycogen phosphorylase
T3 sequence (Q9ET01 whole entry): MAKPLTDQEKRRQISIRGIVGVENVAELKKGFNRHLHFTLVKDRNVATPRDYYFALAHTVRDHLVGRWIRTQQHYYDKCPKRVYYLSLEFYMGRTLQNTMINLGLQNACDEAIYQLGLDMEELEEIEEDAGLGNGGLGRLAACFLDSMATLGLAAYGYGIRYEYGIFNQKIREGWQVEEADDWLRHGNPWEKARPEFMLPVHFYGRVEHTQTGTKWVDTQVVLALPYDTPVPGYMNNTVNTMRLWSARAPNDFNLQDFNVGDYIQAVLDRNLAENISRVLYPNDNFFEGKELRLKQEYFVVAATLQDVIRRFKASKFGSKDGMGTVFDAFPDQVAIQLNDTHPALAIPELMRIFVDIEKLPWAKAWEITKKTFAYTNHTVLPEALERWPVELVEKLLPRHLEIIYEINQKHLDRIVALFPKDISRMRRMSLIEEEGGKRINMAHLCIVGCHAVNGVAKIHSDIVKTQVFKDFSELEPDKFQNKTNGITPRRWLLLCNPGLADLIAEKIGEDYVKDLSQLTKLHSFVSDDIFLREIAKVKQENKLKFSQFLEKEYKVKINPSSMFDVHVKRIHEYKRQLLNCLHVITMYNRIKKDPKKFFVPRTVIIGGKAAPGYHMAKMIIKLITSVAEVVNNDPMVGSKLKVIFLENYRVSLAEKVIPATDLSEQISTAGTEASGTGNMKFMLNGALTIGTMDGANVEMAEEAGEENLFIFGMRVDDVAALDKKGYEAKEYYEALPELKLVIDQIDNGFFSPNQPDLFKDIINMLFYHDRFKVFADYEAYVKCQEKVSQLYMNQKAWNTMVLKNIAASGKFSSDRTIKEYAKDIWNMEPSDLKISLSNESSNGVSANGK

[4] = biological target: T4, Glycogen phosphorylase, liver form (Rattus norvegicus, UniProt P09811); experiment: Inhibitory activity against rat liver glycogen phosphorylase
T4 sequence (P09811 whole entry): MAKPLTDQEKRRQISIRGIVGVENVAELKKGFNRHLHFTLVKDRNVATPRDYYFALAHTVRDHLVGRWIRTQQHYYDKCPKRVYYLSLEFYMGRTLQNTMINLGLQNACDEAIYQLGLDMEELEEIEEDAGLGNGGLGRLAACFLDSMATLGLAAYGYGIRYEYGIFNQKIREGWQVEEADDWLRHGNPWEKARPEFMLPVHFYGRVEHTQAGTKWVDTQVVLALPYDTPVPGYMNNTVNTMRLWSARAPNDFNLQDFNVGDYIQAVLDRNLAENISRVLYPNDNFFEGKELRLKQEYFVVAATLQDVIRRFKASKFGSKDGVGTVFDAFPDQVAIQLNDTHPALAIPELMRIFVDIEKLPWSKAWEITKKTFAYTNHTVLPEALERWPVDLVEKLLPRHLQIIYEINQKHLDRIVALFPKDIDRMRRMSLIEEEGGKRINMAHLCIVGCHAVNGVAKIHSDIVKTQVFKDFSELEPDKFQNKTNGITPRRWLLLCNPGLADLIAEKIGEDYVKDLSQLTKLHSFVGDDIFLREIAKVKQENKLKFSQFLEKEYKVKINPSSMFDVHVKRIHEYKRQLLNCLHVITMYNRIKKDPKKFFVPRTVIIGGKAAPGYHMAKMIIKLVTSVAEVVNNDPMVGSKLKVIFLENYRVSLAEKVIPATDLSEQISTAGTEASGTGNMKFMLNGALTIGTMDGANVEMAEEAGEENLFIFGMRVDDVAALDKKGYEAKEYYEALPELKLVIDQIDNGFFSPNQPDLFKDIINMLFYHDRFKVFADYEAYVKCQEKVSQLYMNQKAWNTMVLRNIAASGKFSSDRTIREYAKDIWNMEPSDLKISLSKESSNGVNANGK

[5] = Cmax in male mice after 2 mg/kg oral dose; format: ADME, organism-based; set-up: dose 2 mg/kg, route oral; conditions: mouse, in vivo
[6] = Bioavailability in male mice, 2mg/kg oral and 1 mg/kg intravenous dose; format: ADME, organism-based; conditions: mouse, in vivo
[7] = Half-life in male mice after 1 mg/kg intravenous dose; format: ADME, organism-based; set-up: dose 1 mg/kg, route intravenous; conditions: mouse, in vivo

Row | SMILES | IC50 [1] [nM] | IC50 [2] [nM] | IC50 [3] [nM] | IC50 [4] [nM] | Cmax [5] [nM] | bioavailability [6] [%] | half-life [7] [h]
1 | O=C(Nc1cc(F)ccc1Oc1ccc(C(=O)O)c(C(=O)O)c1)c1cc(Cl)ccn1 | 78 | 647 | – | – | – | – | –
2 | O=C(Nc1cc2ccccc2cc1Oc1ccc(C(=O)O)c(C(=O)O)c1)c1ccccc1 | 2880 | 12300 | – | – | – | – | –
3 | COc1ccnc(C(=O)Nc2ccccc2Oc2ccc(C(=O)O)c(C(=O)O)c2)c1 | 20 | 200 | 18 | 24 | – | – | –
4 | O=C(Nc1ccccc1Oc1ccc(C(=O)O)c(C(=O)O)c1)c1cc([N+](=O)[O-])ccn1 | 3 | 25 | – | – | – | – | –
5 | N#Cc1ccnc(C(=O)Nc2ccccc2Oc2ccc(C(=O)O)c(C(=O)O)c2)c1 | 16 | 167 | 14 | 19 | – | – | –
6 | O=C(Nc1ccccc1Oc1ccc(C(=O)O)c(C(=O)O)c1)c1cc(I)ccn1 | 39 | 468 | – | – | – | – | –
7 | O=C(Nc1c(F)cccc1Oc1ccc(C(=O)O)c(C(=O)O)c1)c1cc(Cl)ccn1 | 10 | 60 | < 9 | < 9 | 44 | 4.1 | 1
8 | O=C(Nc1cc2ccccc2cc1Oc1ccc(C(=O)O)c(C(=O)O)c1)c1ccccn1 | 167 | 844 | – | – | – | – | –
9 | O=C(Nc1cc(F)ccc1Oc1ccc(C(=O)O)c(C(=O)O)c1)c1cc([N+](=O)[O-])ccn1 | 13 | 109 | – | – | – | – | –
10 | CCc1ccnc(C(=O)Nc2cc3ccccc3cc2Oc2ccc(C(=O)O)c(C(=O)O)c2)c1 | 4 | 29 | – | – | – | – | –
11 | COc1ccnc(C(=O)Nc2c(F)cccc2Oc2ccc(C(=O)O)c(C(=O)O)c2)c1 | 11 | 110 | – | – | – | – | –
12 | O=C(Nc1c(F)cccc1Oc1ccc(C(=O)O)c(C(=O)O)c1)c1cccc([N+](=O)[O-])c1 | 250 | 1860 | 207 | 302 | – | – | –
13 | O=C(Nc1cc2ccccc2cc1Oc1ccc(C(=O)O)c(C(=O)O)c1)c1cc(Cl)ccn1 | 2 | 12 | – | – | – | – | –
14 | O=C(Nc1c(F)cccc1Oc1ccc(C(=O)O)c(C(=O)O)c1)c1cc([N+](=O)[O-])ccn1 | 1 | 9 | – | – | – | – | –
15 | Cc1ccnc(C(=O)Nc2cc3ccccc3cc2Oc2ccc(C(=O)O)c(C(=O)O)c2)c1 | 10 | 57 | – | – | – | – | –
16 | O=C(Nc1ccccc1Oc1ccc(C(=O)O)c(C(=O)O)c1)c1cc(Cl)ccn1 | 17 | 181 | 14 | 16 | – | – | –
17 | O=C(Nc1cc2ccccc2cc1Oc1ccc(C(=O)O)c(C(=O)O)c1)c1cc([N+](=O)[O-])ccn1 | 1 | 3 | – | – | – | – | –
18 | O=C(Nc1cc2ccccc2cc1Oc1ccc(C(=O)O)c(C(=O)O)c1)c1cc(C(F)(F)F)ccn1 | 12 | 80 | – | – | – | – | –
19 | COc1ccnc(C(=O)Nc2cc3ccccc3cc2Oc2ccc(C(=O)O)c(C(=O)O)c2)c1 | 2 | 12 | – | – | – | – | –
20 | O=C(Nc1cc2ccccc2cc1Oc1ccc(C(=O)O)c(C(=O)O)c1)c1cccc([N+](=O)[O-])c1 | 23 | 140 | – | – | – | – | –
